From patent publication US20210255193A1, “LYSINE REACTIVE PROBES AND USES THEREOF” (The Scripps Research Institute, priority 2017, published 2021)

Columns and labels:
Assay in all cases: competitive isoTOP-ABPP
Type in all cases: binding
[1] = molecular target: T1, GOLGB1 Golgin subfamily B member 1 (Homo sapiens, UniProt Q14789); conditions: for isoTOP-ABPP reactivity ratio at lysine Q14789_K103 / isoTOP-ABPP ratio (R) at liganded lysine Q14789_K103: 50 uM, in vitro; for isoTOP-ABPP reactivity ratio at lysine Q14789_K103: 231 sol; for isoTOP-ABPP ratio (R) at liganded lysine Q14789_K103: sol, 231
T1 construct: isoTOP-ABPP experiments performed in cell lysates (in vitro); endogenous in cells; host or cells: soluble proteome of human cancer cell lines (MDA-MB-231, Ramos, Jurkat)
In short: (§1)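 Lysate + fragment (50 μM activated ester / 100 μM guanidinylating agent) or DMSO → 0.1 mM STP-alkyne, 1 h, RT → CuAAC to TEV tags (compound light, DMSO heavy) → LC-MS. R = heavy/light MS1 area; liganded lysine if R≥4.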

[2] = molecular target: T2, MAP2K3 Dual specificity mitogen-activated protein kinase (Homo sapiens, UniProt P46734); conditions: for isoTOP-ABPP reactivity ratio at lysine P46734_K93 / isoTOP-ABPP ratio (R) at liganded lysine P46734_K93: 50 uM, in vitro; for isoTOP-ABPP reactivity ratio at lysine P46734_K93: 231 sol; for isoTOP-ABPP ratio (R) at liganded lysine P46734_K93: sol, 231
T2 construct: isoTOP-ABPP experiments performed in cell lysates (in vitro); endogenous in cells; host or cells: soluble proteome of human cancer cell lines (MDA-MB-231; Ramos and Jurkat also prepared)
T2 sequence (P46734 1-347): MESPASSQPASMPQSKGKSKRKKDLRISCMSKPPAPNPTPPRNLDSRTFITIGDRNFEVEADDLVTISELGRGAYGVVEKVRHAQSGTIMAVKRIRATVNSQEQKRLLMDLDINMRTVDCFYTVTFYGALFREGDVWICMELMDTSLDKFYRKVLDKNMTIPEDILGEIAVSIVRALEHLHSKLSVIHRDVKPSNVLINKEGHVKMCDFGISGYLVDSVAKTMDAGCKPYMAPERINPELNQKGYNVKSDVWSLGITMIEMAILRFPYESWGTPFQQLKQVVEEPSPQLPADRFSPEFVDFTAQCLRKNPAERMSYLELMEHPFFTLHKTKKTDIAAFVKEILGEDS
In short: as §1

[3] = molecular target: T3, STRN3 Striatin-3 (Homo sapiens, UniProt Q13033); conditions: for isoTOP-ABPP reactivity ratio at lysine Q13033_K755 / isoTOP-ABPP ratio (R) at liganded lysine Q13033_K755: 50 uM, in vitro; for isoTOP-ABPP reactivity ratio at lysine Q13033_K755: 231 sol; for isoTOP-ABPP ratio (R) at liganded lysine Q13033_K755: sol, 231
T3 construct: isoTOP-ABPP experiments performed in cell lysates (in vitro); endogenous in cells; host or cells: soluble proteome of human cancer cell lines (MDA-MB-231, Ramos, Jurkat)
T3 sequence (Q13033 1-797): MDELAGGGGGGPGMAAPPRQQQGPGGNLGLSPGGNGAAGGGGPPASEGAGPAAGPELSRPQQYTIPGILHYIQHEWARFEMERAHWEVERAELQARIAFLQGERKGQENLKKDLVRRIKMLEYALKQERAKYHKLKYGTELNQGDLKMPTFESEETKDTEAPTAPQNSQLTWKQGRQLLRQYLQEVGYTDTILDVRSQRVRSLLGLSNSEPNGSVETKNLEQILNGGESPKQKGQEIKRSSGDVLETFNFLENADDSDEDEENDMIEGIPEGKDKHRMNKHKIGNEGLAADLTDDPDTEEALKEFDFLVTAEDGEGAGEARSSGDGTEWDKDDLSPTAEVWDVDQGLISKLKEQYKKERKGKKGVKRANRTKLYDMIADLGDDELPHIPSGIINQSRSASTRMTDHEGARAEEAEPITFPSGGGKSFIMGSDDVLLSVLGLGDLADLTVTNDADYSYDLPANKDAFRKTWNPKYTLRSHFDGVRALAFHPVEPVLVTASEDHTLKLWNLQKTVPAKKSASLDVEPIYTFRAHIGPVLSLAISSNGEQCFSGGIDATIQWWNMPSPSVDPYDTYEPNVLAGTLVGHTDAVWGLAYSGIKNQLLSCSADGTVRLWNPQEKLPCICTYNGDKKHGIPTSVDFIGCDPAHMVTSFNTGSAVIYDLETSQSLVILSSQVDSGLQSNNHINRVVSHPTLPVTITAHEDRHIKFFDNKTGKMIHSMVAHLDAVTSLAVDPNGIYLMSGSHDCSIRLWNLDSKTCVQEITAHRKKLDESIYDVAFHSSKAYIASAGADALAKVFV
In short: as §1

T1 sequence (Q14789 whole entry): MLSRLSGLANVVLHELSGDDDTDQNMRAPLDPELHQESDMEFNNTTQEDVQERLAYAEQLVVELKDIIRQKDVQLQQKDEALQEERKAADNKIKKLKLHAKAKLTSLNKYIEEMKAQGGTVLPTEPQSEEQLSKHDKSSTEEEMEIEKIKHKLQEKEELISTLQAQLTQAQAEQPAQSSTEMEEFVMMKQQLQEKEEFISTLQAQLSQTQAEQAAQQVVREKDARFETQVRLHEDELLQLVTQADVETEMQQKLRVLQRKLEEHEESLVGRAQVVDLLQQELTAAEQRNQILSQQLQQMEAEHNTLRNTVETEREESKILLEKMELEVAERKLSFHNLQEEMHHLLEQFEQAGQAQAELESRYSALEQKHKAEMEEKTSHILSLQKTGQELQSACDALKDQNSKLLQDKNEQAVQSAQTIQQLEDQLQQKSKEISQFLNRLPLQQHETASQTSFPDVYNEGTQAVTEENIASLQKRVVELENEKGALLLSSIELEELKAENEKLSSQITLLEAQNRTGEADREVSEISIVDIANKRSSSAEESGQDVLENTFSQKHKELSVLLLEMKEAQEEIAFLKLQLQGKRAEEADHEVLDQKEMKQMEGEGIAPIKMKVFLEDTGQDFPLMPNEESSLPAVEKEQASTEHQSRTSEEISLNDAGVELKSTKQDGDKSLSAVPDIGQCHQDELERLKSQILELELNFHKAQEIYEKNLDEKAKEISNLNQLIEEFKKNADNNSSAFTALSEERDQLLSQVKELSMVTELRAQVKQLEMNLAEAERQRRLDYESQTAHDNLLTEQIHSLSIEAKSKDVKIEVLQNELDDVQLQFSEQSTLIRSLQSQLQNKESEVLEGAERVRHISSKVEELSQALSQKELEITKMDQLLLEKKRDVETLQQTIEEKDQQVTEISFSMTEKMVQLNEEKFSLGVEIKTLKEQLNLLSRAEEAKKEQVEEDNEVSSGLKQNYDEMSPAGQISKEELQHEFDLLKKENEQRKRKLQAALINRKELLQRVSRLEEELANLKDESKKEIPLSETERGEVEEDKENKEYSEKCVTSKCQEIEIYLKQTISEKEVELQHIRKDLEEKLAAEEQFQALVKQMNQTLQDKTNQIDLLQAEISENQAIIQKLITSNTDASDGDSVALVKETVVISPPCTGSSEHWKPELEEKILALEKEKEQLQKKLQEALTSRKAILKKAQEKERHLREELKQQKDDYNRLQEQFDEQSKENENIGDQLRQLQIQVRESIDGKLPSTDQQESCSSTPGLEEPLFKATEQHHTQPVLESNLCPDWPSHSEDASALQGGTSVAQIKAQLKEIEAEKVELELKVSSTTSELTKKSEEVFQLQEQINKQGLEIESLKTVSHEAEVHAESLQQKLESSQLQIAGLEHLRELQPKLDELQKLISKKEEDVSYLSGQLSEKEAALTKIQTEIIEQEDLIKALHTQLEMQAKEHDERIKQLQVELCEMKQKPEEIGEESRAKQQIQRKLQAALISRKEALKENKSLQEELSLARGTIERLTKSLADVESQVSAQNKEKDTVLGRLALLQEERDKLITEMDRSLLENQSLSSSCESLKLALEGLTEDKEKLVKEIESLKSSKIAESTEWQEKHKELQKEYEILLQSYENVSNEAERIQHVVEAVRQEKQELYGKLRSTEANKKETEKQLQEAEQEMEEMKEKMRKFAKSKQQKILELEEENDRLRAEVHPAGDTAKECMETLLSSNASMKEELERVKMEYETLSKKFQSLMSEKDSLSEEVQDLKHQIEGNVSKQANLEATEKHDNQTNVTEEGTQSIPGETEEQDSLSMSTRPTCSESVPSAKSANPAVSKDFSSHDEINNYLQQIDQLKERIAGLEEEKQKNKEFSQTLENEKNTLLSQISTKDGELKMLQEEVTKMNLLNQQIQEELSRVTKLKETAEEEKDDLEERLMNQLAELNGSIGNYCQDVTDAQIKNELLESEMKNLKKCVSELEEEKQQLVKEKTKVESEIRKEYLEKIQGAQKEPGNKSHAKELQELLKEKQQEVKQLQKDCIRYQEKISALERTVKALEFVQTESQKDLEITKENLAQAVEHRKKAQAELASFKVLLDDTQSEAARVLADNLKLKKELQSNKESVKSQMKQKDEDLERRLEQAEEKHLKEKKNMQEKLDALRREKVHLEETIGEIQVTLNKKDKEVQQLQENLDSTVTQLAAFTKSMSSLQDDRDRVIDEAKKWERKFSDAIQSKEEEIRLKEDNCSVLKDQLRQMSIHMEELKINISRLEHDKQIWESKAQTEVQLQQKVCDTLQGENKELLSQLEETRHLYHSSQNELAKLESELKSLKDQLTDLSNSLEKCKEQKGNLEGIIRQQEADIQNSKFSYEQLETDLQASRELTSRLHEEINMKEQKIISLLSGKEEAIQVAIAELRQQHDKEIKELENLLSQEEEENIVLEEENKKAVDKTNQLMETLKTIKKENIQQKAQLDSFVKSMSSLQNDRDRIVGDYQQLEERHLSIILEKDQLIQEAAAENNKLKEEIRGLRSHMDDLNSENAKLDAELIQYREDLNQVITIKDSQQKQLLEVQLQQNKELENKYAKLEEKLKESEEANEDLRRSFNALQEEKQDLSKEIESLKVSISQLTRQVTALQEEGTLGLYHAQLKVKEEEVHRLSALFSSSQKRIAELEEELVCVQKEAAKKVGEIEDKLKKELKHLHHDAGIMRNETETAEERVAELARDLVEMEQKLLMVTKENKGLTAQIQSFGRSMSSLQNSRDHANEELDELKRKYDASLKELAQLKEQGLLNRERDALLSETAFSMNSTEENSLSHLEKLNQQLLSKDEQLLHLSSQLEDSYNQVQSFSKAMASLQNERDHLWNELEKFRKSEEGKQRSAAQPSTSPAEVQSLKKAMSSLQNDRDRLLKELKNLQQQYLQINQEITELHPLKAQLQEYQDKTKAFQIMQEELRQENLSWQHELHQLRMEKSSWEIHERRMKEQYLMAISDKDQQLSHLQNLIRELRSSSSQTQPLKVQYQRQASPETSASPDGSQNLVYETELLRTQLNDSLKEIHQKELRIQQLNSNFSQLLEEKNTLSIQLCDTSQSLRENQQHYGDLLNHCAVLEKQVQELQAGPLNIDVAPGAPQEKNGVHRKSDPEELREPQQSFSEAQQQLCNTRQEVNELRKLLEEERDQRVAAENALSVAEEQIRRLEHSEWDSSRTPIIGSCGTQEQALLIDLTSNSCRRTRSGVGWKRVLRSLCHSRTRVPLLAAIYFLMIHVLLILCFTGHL

| SMILES | isoTOP-ABPP reactivity ratio at lysine Q14789_K103 [1] | isoTOP-ABPP reactivity ratio at lysine P46734_K93 [2] | isoTOP-ABPP reactivity ratio at lysine Q13033_K755 [3] | isoTOP-ABPP ratio (R) at liganded lysine Q14789_K103 [1] | isoTOP-ABPP ratio (R) at liganded lysine P46734_K93 [2] | isoTOP-ABPP ratio (R) at liganded lysine Q13033_K755 [3] | also measured |
| --- | --- | --- | --- | --- | --- | --- | --- |
| O=C(Oc1ccc([N+](=O)[O-])cc1[N+](=O)[O-])c1cc(C(F)(F)F)cc(C(F)(F)F)c1 [fragment 31, 2,4-Dinitrophenyl 3,5-bis(trifluoromethyl)benzoate] | 0.9 | 1.2 | 1.4 | – | – | – | – |
| CC(C)(C)OC(=O)N=C(NC(=O)OC(C)(C)C)n1cccn1 [fragment 50, reference compound] | – | – | – | – | – | – | isoTOP-ABPP ratio, lysine Q14789_K103 ([1]; 100 uM_231_sol_in vitro): 1.4; isoTOP-ABPP ratio, lysine P46734_K93 ([2]; 100 uM_231_sol_in vitro): 1.8; isoTOP-ABPP ratio, lysine Q13033_K755 ([3]; 100 uM_231_sol_in vitro): 1.2 |
| O=C(Oc1ccc([N+](=O)[O-])cc1[N+](=O)[O-])c1ccccc1Nc1cccc(C(F)(F)F)c1 [fragment 40, 2,4-Dinitrophenyl 2-((3-(trifluoromethyl)phenyl)amino)benzoate] | – | – | – | 0.9 | 1.0 | 1.2 | – |
| N#Cc1ccc(C(=O)Oc2ccc([N+](=O)[O-])cc2[N+](=O)[O-])cc1 [fragment 44, 2,4-Dinitrophenyl 4-cyanobenzoate] | – | – | – | – | – | – | isoTOP-ABPP ratio, lysine Q14789_K103 ([1]; 50 uM_231_sol_in vitro): 0.9; isoTOP-ABPP ratio, lysine P46734_K93 ([2]; 50 uM_231_sol_in vitro): 0.8; isoTOP-ABPP ratio, lysine Q13033_K755 ([3]; 50 uM_231_sol_in vitro): 1.0 |
| O=C(Oc1ccc([N+](=O)[O-])cc1[N+](=O)[O-])C(c1ccccc1)c1ccccc1 [fragment 30, 2,4-Dinitrophenyl 2,2-diphenylacetate] | 1.4 | 1.4 | 2.0 | – | – | – | – |
| O=C(ON1C(=O)CCC1=O)c1cc(C(F)(F)F)cc(C(F)(F)F)c1 [fragment 46, 3,5-Bis(trifluoromethyl)benzoic acid NHS ester] | – | – | – | – | – | – | isoTOP-ABPP ratio, lysine Q14789_K103 ([1]; 50 uM_231_sol_in vitro): 1.2; isoTOP-ABPP ratio, lysine P46734_K93 ([2]; 50 uM_231_sol_in vitro): 1.3; isoTOP-ABPP ratio, lysine Q13033_K755 ([3]; 50 uM_231_sol_in vitro): 11.4 |
| O=C(Oc1ccc([N+](=O)[O-])cc1[N+](=O)[O-])c1ccc(Oc2ccccc2)cc1 [fragment 39, 2,4-Dinitrophenyl 4-phenoxybenzoate] | – | – | – | 0.9 | 0.8 | 0.9 | – |
| O=C(Oc1ccc([N+](=O)[O-])cc1[N+](=O)[O-])c1ccc(-c2ccccc2)cc1 [fragment 37, 2,4-Dinitrophenyl [1,1′-biphenyl]-4-carboxylate] | – | – | – | 0.9 | 0.7 | 0.8 | – |
| COc1cc(CCC(=O)Oc2ccc([N+](=O)[O-])cc2[N+](=O)[O-])cc(OC)c1OC [fragment 33, 2,4-Dinitrophenyl 3-(3,4,5-trimethoxyphenyl)propanoate] | 1.0 | 0.9 | 1.8 | – | – | – | – |
